Test results from US20250034171A1, “IMIDAZOPYRIDINE AMIDES AND RELATED COMPOUNDS FOR USE IN THE TREATMENT OF BACTERIAL INFECTIONS” (priority 2021, published 2025).
Converted amounts (≈) assume the structure as drawn. Read-outs that look alike come from different tables or passages of the source.

Experiments:
[1] = system: Mycobacterium tuberculosis strain H37Rv; test: Test 2: MIC determination against M. tuberculosis, resazurin fluorescence; type: cell-based; conditions: Mycobacterium tuberculosis, H37RV, Test 2, M. tuberculosis H37Rv; for MIC90: read-out: Bacterial activity MIC90; for IC50: read-out: Bacterial activity pMIC50 (converted)
[2] = system: Salmonella typhimurium Ames II Mixed Strains (TA7001-TA7006) and TA98; test: Genotoxicity assay (AmesIIb mutagenicity test); type: cell-based; conditions: Salmonella typhimurium; further: key: an AmesIIb score of 1 shows no genotoxicity signals
In short: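 Histidine-requiring strains were exposed to graded compound concentrations, both without and with a mammalian metabolic activation system. Base substitutions were detected with a mixture of TA7001–TA7006 and frameshifts with TA98. Reversion to histidine independence was scored by growth in histidine-lacking medium.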

[3] = HTChem stab assay (chemical stability in buffer pH2, pH4 and pH7 vs DMSO reference); type: physicochemical; conditions: 72 h, 50 µM; for Chemical stability data, Buffer pH2: pH 2; for Chemical stability data, Buffer pH4: pH 4; for Chemical stability data, Buffer pH7: pH 7
In short: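 Compound from 10 mM DMSO stock shaken 72 h at room temperature in Buffer/DMSO (2:1) at pH2 (0.1N HCl), pH4 or pH7 (phosphate), alongside a DMSO control. Samples analysed by LC/UV/MS against the DMSO reference; degradant peaks identified by MS and sample purity reported.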

[4] = Metabolic stability in liver microsomes (intrinsic clearance); type: in vitro ADME; conditions: microsomes
In short: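 Parent-compound loss, followed by LC-MS/MS peak area versus t=0, was tracked over 0, 5, 10, 20, 40 and 60 min in NADPH-initiated (1 mM) microsomal incubations: 0.5 mg/ml protein, pH 7.4 phosphate, 1 mM MgCl2, 37° C, substrate typically 1 μM. Half-life from regression gave intrinsic clearance per mg protein.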

[5] = system: M. tuberculosis H37Rv inside macrophages; conditions: strain M. tuberculosis H37Rv; cited from earlier work
M. tuberculosis = conditions: cited from earlier work
[6] = mouse, pH 7.4, Metabolic Stability Half life (mouse, min.)
[7] = mouse, pH 7.4, mouse liver microsomes, read-out: Metabolic Stability (liver microsome intrinsic clearance) Clearance (mouse, μl/min./mg protein)
[8] = human, pH 7.4, Metabolic Stability Half life (human, min.)
[9] = human, pH 7.4, human liver microsomes, read-out: Metabolic Stability (liver microsome intrinsic clearance) Clearance (human, μl/min./mg protein)

CCc1nc2ncc(Cl)cn2c1C(=O)NCc1ccc(-c2nc3n(n2)CCC(C(F)(F)F)C3)cc1 (stereo not drawn) [Compound 10ab]
MIC90 [1]: 0.016 µM (≈ 0.00806 µg/mL) | IC50 [1]: 5500 pM | GeneTox AmesIIb Score [2]: 1 | Chemical stability data, Vehicle DMSO [3]: 90% | Chemical stability data, Buffer pH2 [3]: 72% | Chemical stability data, Buffer pH4 [3]: 64% | Chemical stability data, Buffer pH7 [3]: 90% | half-life at 1 µM [4, 6]: > 3 h | microsomal CLint at 1 µM [4, 7]: < 7.7 µL/min/mg

CCc1nc2nc(N)c(C)cn2c1C(=O)NCc1ccc(-c2nc3n(n2)CCC(C(F)(F)F)C3)cc1 (stereo not drawn) [Compound 12ab]
MIC90 [1]: 0.064 µM (≈ 0.0319 µg/mL) | IC50 [1]: 23400 pM | GeneTox AmesIIb Score [2]: 1 | Chemical stability data, Vehicle DMSO [3]: 99% | Chemical stability data, Buffer pH2 [3]: 100% | Chemical stability data, Buffer pH4 [3]: 100% | Chemical stability data, Buffer pH7 [3]: 100% | half-life at 1 µM [4, 8]: > 3 h | microsomal CLint at 1 µM [4, 9]: < 7.7 µL/min/mg | half-life at 1 µM [4, 6]: > 3 h | microsomal CLint at 1 µM [4, 7]: < 7.7 µL/min/mg

CCc1nc2ncc(C)cn2c1C(=O)NCc1ccc(-c2cc3n(n2)CCC(C(F)(F)F)C3)cc1 (stereo not drawn) [Compound 20ab]
MIC90 [1]: 0.003 µM (≈ 0.00145 µg/mL) | IC50 [1]: 931 pM | GeneTox AmesIIb Score [2]: 1 | Chemical stability data, Vehicle DMSO [3]: 100% | Chemical stability data, Buffer pH2 [3]: 100% | Chemical stability data, Buffer pH4 [3]: 100% | Chemical stability data, Buffer pH7 [3]: 100% | half-life at 1 µM [4, 8]: 0.637 h | microsomal CLint at 1 µM [4, 9]: 36.3 µL/min/mg | half-life at 1 µM [4, 6]: 1.08 h | microsomal CLint at 1 µM [4, 7]: 21.3 µL/min/mg

CCc1nc2ncc(C)cn2c1C(=O)NCc1ccc(-c2nc3n(n2)CCC(C(F)(F)F)C3)c(F)c1 (stereo not drawn) [Compound 22ab]
MIC90 [1]: 0.007 µM (≈ 0.00351 µg/mL) | IC50 [1]: 2290 pM | GeneTox AmesIIb Score [2]: 1 | Chemical stability data, Vehicle DMSO [3]: 98% | Chemical stability data, Buffer pH2 [3]: 97% | Chemical stability data, Buffer pH4 [3]: 97% | Chemical stability data, Buffer pH7 [3]: 98% | half-life at 1 µM [4, 6]: 1.78 h | microsomal CLint at 1 µM [4, 7]: 13 µL/min/mg

CCc1nc2ncc(C)cn2c1C(=O)NCc1ccc(-c2nc3n(n2)CCC(C(F)(F)F)C3)c(C)c1 (stereo not drawn) [Compound 23ab]
MIC90 [1]: 0.022 µM (≈ 0.0109 µg/mL) | IC50 [1]: 8300 pM | GeneTox AmesIIb Score [2]: 1 | Chemical stability data, Vehicle DMSO [3]: 100% | Chemical stability data, Buffer pH2 [3]: 100% | Chemical stability data, Buffer pH4 [3]: 100% | Chemical stability data, Buffer pH7 [3]: 100% | half-life at 1 µM [4, 6]: 1.58 h | microsomal CLint at 1 µM [4, 7]: 14.6 µL/min/mg

CCc1nc2ncc(C)cn2c1C(=O)NCc1ccc(-c2nc3n(n2)CC(C(F)(F)F)CC3)cc1 (stereo not drawn) [Compound 24ab]
MIC90 [1]: 0.008 µM (≈ 0.00387 µg/mL) | IC50 [1]: 3380 pM | GeneTox AmesIIb Score [2]: 1 | Chemical stability data, Vehicle DMSO [3]: 100% | Chemical stability data, Buffer pH2 [3]: 100% | Chemical stability data, Buffer pH4 [3]: 100% | Chemical stability data, Buffer pH7 [3]: 100% | half-life at 1 µM [4, 6]: > 3 h | microsomal CLint at 1 µM [4, 7]: < 7.7 µL/min/mg

CCc1nc2ncc(C)cn2c1C(=O)NCc1ccc(-c2nc3n(n2)CCC(C(F)F)C3)cc1 (stereo not drawn) [Compound 25ab]
MIC90 [1]: 0.014 µM (≈ 0.00652 µg/mL) | IC50 [1]: 7460 pM | GeneTox AmesIIb Score [2]: 1 | Chemical stability data, Vehicle DMSO [3]: 100% | Chemical stability data, Buffer pH2 [3]: 100% | Chemical stability data, Buffer pH4 [3]: 100% | Chemical stability data, Buffer pH7 [3]: 100% | half-life at 1 µM [4, 6]: 2.32 h | microsomal CLint at 1 µM [4, 7]: 9.97 µL/min/mg

CCc1nc2ncc(C)cn2c1C(=O)NCc1ccc(-c2nc3n(n2)CCC(OC)C3)cc1 (stereo not drawn) [Compound 26ab]
MIC90 [1]: 0.143 µM (≈ 0.0637 µg/mL) | IC50 [1]: 49400 pM | GeneTox AmesIIb Score [2]: 1 | Chemical stability data, Vehicle DMSO [3]: 95% | Chemical stability data, Buffer pH2 [3]: 95% | Chemical stability data, Buffer pH4 [3]: 95% | Chemical stability data, Buffer pH7 [3]: 95% | half-life at 1 µM [4, 6]: 2.12 h | microsomal CLint at 1 µM [4, 7]: 10.9 µL/min/mg

CCc1nc2ncc(C)cn2c1C(=O)NCc1ccc(-c2nc3n(n2)CCC(O)C3)cc1 (stereo not drawn) [Compound 29ab]
MIC90 [1]: 3.19 µM (≈ 1.38 µg/mL) | IC50 [1]: > 500000 pM | GeneTox AmesIIb Score [2]: 1 | Chemical stability data, Vehicle DMSO [3]: 100% | Chemical stability data, Buffer pH2 [3]: 100% | Chemical stability data, Buffer pH4 [3]: 100% | Chemical stability data, Buffer pH7 [3]: 100% | half-life at 1 µM [4, 8]: > 3 h | microsomal CLint at 1 µM [4, 9]: < 7.7 µL/min/mg | half-life at 1 µM [4, 6]: > 3 h | microsomal CLint at 1 µM [4, 7]: < 7.7 µL/min/mg

CCc1nc2ncc(C)cn2c1C(=O)NCc1ccc(-c2nc3n(n2)CCC(OCCOC)C3)cc1 (stereo not drawn) [Compound 30ab]
MIC90 [1]: 0.332 µM (≈ 0.163 µg/mL) | IC50 [1]: 109000 pM | GeneTox AmesIIb Score [2]: 1 | Chemical stability data, Vehicle DMSO [3]: 98% | Chemical stability data, Buffer pH2 [3]: 98% | Chemical stability data, Buffer pH4 [3]: 98% | Chemical stability data, Buffer pH7 [3]: 98% | half-life at 1 µM [4, 6]: 2.55 h | microsomal CLint at 1 µM [4, 7]: 9.08 µL/min/mg

CCc1nc2ncc(C)cn2c1C(=O)NCc1ccc(-c2nc3n(n2)CCCC3)cc1 [Compound 31ab]
MIC90 [1]: 0.052 µM (≈ 0.0216 µg/mL) | IC50 [1]: 16000 pM | GeneTox AmesIIb Score [2]: 1 | Chemical stability data, Vehicle DMSO [3]: 100% | Chemical stability data, Buffer pH2 [3]: 100% | Chemical stability data, Buffer pH4 [3]: 100% | Chemical stability data, Buffer pH7 [3]: 100% | half-life at 1 µM [4, 6]: > 3 h | microsomal CLint at 1 µM [4, 7]: < 7.7 µL/min/mg

CCc1nc2nc(C)ccn2c1C(=O)NCc1ccc(-c2cn3c(n2)CC(C(F)(F)F)CC3)cc1 (stereo not drawn) [Compound 34ab]
MIC90 [1]: 0.387 µM (≈ 0.187 µg/mL) | IC50 [1]: 94600 pM | GeneTox AmesIIb Score [2]: 1 | Chemical stability data, Vehicle DMSO [3]: 94% | Chemical stability data, Buffer pH2 [3]: 94% | Chemical stability data, Buffer pH4 [3]: 95% | Chemical stability data, Buffer pH7 [3]: 93% | half-life at 1 µM [4, 6]: > 3 h | microsomal CLint at 1 µM [4, 7]: < 7.7 µL/min/mg

CCc1nc2nc(F)ccn2c1C(=O)NCc1ccc(-c2cn3c(n2)CC(C)CC3)cc1 (stereo not drawn) [Compound 35ab]
MIC90 [1]: 0.041 µM (≈ 0.0177 µg/mL) | IC50 [1]: 13400 pM | GeneTox AmesIIb Score [2]: 1 | Chemical stability data, Vehicle DMSO [3]: 100% | Chemical stability data, Buffer pH2 [3]: 100% | Chemical stability data, Buffer pH4 [3]: 99% | Chemical stability data, Buffer pH7 [3]: 98% | half-life at 1 µM [4, 6]: 0.498 h | microsomal CLint at 1 µM [4, 7]: 46.4 µL/min/mg

CCc1nc2ccc(Cl)cn2c1C(=O)NCc1ccc(N2CCC(c3ccc(OC(F)(F)F)cc3)CC2)cc1 [Compound Q203]
MIC50 [5]: 0.00028 µM (≈ 0.000156 µg/mL) | activity against MDR tuberculosis (M. tuberculosis; MDR tuberculosis): activity against MDR tuberculosis | activity against replicating and non-replicating bacteria (M. tuberculosis; replicating and non-replicating bacteria): highly active
